Calls of active or inactive are those of the source. No cut-off for these calls is given here.
Experiments:
HeLa [1] = experiment: Induction of lipid peroxidation in human HeLa cells assessed as increase in ROS generation incubated for 24 hrs by flow cytometry; format: functional, cell-based; conditions: dose 0.1-1 µM
Chloride [2] = experiment: Binding affinity to chloride anions in human HeLa cells assessed as increase in chloride influx at 1 uM measured after 15 mins by inverted fluorescence microscopy; format: cell-based
[3] = MRT (0 to t) in male CD-1 mouse at 1 mg/kg, iv measured for 0.083 to 48 hrs by HPLC/MS/MS analysis; format: ADME, organism-based; conditions: in vivo, time 0.083-48 hrs
HeLa [4] = experiment: Induction of mitochondrial membrane permeability in human HeLa cells at 0.625 to 5 uM incubated for 24 hrs by JC-1 staining based analysis; format: functional, cell-based; conditions: dose 0.625-5 µM
[5] = Toxicity in male Balb/C nude mouse xenografted with human HeLa cells assessed as abnormalities in kidney at 10 to 20 mg/kg, ip administered on every 2 days measured after 18 days by H and E staining based analysis; format: organism-based; conditions: in vivo, 432 h, dose 10-20 mg/kg, time 18 day
HeLa [6] = experiment: Induction of mitochondrial membrane permeability in human HeLa cells assessed as red fluorescence at 1 uM incubated for 24 hrs by JC-1 staining based analysis (reference value: 98.5 %); format: functional
[7] = Toxicity in male Balb/C nude mouse xenografted with human HeLa cells assessed as body weight change at 20 mg/kg, ip administered on every 2 days measured after 18 days; format: organism-based; conditions: in vivo, 432 h, time 18 day
[8] = Toxicity in male Balb/C nude mouse xenografted with human HeLa cells assessed as abnormalities in lung at 10 to 20 mg/kg, ip administered on every 2 days measured after 18 days by H and E staining based analysis; format: organism-based; conditions: in vivo, 432 h, dose 10-20 mg/kg, time 18 day
HeLa [9] = experiment: Induction of mitochondrial membrane permeability in human HeLa cells assessed as red fluorescence at 0.5 uM incubated for 24 hrs by JC-1 staining based analysis (reference value: 98.5 %); format: functional
HeLa [10] = experiment: Induction of mitochondrial membrane permeability in human HeLa cells assessed as green fluorescence at 0.1 uM incubated for 24 hrs by JC-1 staining based analysis (reference value: 1.5 %); format: functional
[11] = Tmax in male CD-1 mouse at 1 mg/kg, ip measured for 0.083 to 48 hrs by HPLC/MS/MS analysis; format: ADME, organism-based; conditions: in vivo, time 0.083-48 hrs
HeLa [12] = experiment: Antitumor activity against human HeLa cells xenografted in male Balb/C nude mouse assessed as nuclear fragmentation at 10 to 20 mg/kg, ip administered on every 2 days measured after 18 days by H and E staining based analysis; format: functional, organism-based; conditions: dose 10-20 mg/kg, time 18.0 day
HeLa [13] = experiment: Induction of beta III-tubulin degradation in human HeLa cells up to 10 uM preincubated with MG132 followed by compound addition measured after 24 hrs by immunoblotting analysis; format: cell-based
[14] = Oral bioavailability in male CD-1 mouse at 1 mg/kg measured for 0.083 to 48 hrs by HPLC/MS/MS analysis; format: ADME, organism-based; conditions: in vivo, time 0.083-48 hrs
[15] = AUC (0 to t) in male CD-1 mouse at 1 mg/kg, iv measured for 0.083 to 48 hrs by HPLC/MS/MS analysis; format: ADME, organism-based; conditions: in vivo, time 0.083-48 hrs
[16] = MRT (0 to t) in male CD-1 mouse at 1 mg/kg, ip measured for 0.083 to 48 hrs by HPLC/MS/MS analysis; format: ADME, organism-based; conditions: in vivo, time 0.083-48 hrs
Chloride [17] = experiment: Binding affinity to chloride anions assessed as chloride efflux in egg-yolk L-alpha-phosphatidylcholine liposome model harboring intravesicular NaCl/extravesicular NaNO3
[18] = molecular target: Tubulin beta (Homo sapiens) (UniProt P68371+Q9H4B7+Q13509+P04350+Q3ZCM7+P07437+Q13885+Q9BVA1+Q9BUF5+A6NNZ2); experiment: Induction of beta-tubulin degradation in human HeLa cells incubated for 48 hrs by immunoblotting analysis; format: cell-based; conditions: dose 0.1-1 µM
HeLa [19] = experiment: Cytotoxicity against human HeLa cells assessed as decrease in ratio of green to red fluorescence at 0.1 to 1 uM incubated for 24 hrs by calcein-AM/7-AAD staining based analysis; format: functional, cell-based; conditions: dose 0.1-1 µM
[20] = Tmax in male CD-1 mouse at 1 mg/kg, iv measured for 0.083 to 48 hrs by HPLC/MS/MS analysis; format: ADME, organism-based; conditions: in vivo, time 0.083-48 hrs
[21] = MRT (0 to infinity) in male CD-1 mouse at 1 mg/kg, ip measured for 0.083 to 48 hrs by HPLC/MS/MS analysis; format: ADME, organism-based; conditions: in vivo, time 0.083-48 hrs
MCF7 = experiment: Cytotoxicity against human MCF7 cells incubated for 48 hrs by MTT assay; format: functional, cell-based; conditions: MCF7, 48 h
HeLa [22] = experiment: Cytotoxicity against human HeLa cells assessed as decrease in cell viability at 0.01 to 10 uM pretreated with Z-VAD-FMK followed by compound addition by MTT assay; format: functional, cell-based; conditions: dose 0.01-10 µM
Chloride [23] = experiment: Binding affinity to chloride anions assessed as chloride efflux in egg-yolk L-alpha-phosphatidylcholine liposome model harboring intravesicular RbCl/extravesicular NaNO3
HeLa [24] = experiment: In vivo induction of ferroptosis in human HeLa cells xenografted in male Balb/C nude mouse assessed as increase in cleaved PARP level administered intraperitoneally on every 2 days measured after 18 days by immunoblotting analysis; format: functional, organism-based; conditions: dose 10-20 mg/kg, route ip, time 18.0 day
HeLa [25] = experiment: Antitumor activity against human HeLa cells xenografted in male Balb/C nude mouse assessed as reduction in tumor weight at 20 mg/kg, ip administered on every 2 days measured after 18 days relative to control; format: functional; design: scale not given: the % may be the effect or the level left; conditions: time 18 day
[26] = molecular target: Tubulin alpha (Homo sapiens) (UniProt P0DPH7+P68366+Q71U36+P68363+Q9BQE3+Q6PEY2+A6NHL2+Q9NY65); experiment: Induction of alpha-tubulin degradation in human HeLa cells incubated for 48 hrs by immunoblotting analysis; format: cell-based; conditions: dose 0.1-1 µM
HeLa [27] = experiment: Effect on p53 pathway in human HeLa cells at 10 uM incubated for 48 hrs by KEGG analysis; format: functional, cell-based
Chloride [28] = experiment: Binding affinity to chloride anions assessed as binding constant at 1:1 stoichiometry of compound and tetrabutylammonium chloride salt by 1H NMR spectroscopy
A549 = experiment: Cytotoxicity against human A549 cells incubated for 48 hrs by MTT assay; format: functional, cell-based; conditions: A549, 48 h
HeLa [29] = experiment: Induction of ferroptosis in human HeLa cells assessed as increase in Bad level at 0.1 to 1 uM incubated for 24 hrs by immunoblotting analysis; format: functional, cell-based; conditions: dose 0.1-1 µM
HeLa [30] = experiment: Antitumor activity against human HeLa cells xenografted in male Balb/C nude mouse assessed as average tumor size at 10 mg/kg, ip administered on every 2 days measured after 18 days (reference value: 1995.1 mm3); format: functional; conditions: time 18 day
HeLa [31] = experiment: Induction of lipid peroxidation in human HeLa cells assessed as increase in Fe2+ level incubated for 12 hrs by absorbance based assay; format: functional, cell-based; conditions: dose 0.1-1 µM
HeLa [32] = experiment: Induction of lipid peroxidation in human HeLa cells assessed as increase in green fluorescence at 0.1 to 1 uM incubated for 24 hrs by C11-BODIPY-581/591 probe based analysis; format: functional, cell-based; conditions: dose 0.1-1 µM
HeLa [33] = experiment: Induction of ferroptosis in human HeLa cells assessed as increase in caspase-3 activation at 0.1 to 1 uM incubated for 24 hrs by immunoblotting analysis; format: functional, cell-based; conditions: dose 0.1-1 µM

MRT last [3]: 2.64 h | Tmax [11]: 3.5 h | bioavailability [14]: 22% | AUC(0-t) [15]: 17500 ng·h/mL | MRT last [16]: 24.9 h | Activity (Chloride [17]): Active | Activity [18]: Dose-dependent-effect | Tmax [20]: 4.8 min | MRT inf [21]: 14.8 h | Activity (Chloride [23]): Active | Activity [26]: Dose-dependent-effect | K (Chloride [28]): 5250 M⁻¹
SMILES: Fc1cc(-c2nc3c(C(F)(F)F)cc(C(F)(F)F)cc3[nH]2)cc(-c2nc3c(C(F)(F)F)cc(C(F)(F)F)cc3[nH]2)c1
Activity (HeLa [1]): Dose-dependent-effect | Activity (Chloride [2]): inactive | Activity (HeLa [4]): Active | Activity [5]: Non-toxic | Activity (HeLa [6]): 33.2% | Activity [7]: Non-toxic | Activity [8]: Non-toxic | Activity (HeLa [9]): 55.1% | Activity (HeLa [10]): 9.5% | Activity (HeLa [12]): Active | Activity (HeLa [13]): inactive | Activity (HeLa [19]): Active | IC50 (MCF7): 770 nM | Activity (HeLa [22]): Not active; Z-Vad-Fmk Exhibited Partial Protection For Cells | Activity (HeLa [24]): Dose-dependent-effect | Activity (HeLa [25]): 69% | Activity (HeLa [27]): Active | IC50 (A549): 1680 nM | Activity (HeLa [29]): Active | Activity (HeLa [30]): 850.9 mm3 | Activity (HeLa [31]): Dose-dependent-effect | Activity (HeLa [32]): Active | Activity (HeLa [33]): Active

Reference: ChEMBL document CHEMBL6178013, “Ferroptosis of Cancer Cells via Tubulin Degradation and Mitochondrial Dysfunction: A Novel Mechanism of Anticancer Effect for Small-Molecule Anion Transporters” (J Med Chem, 2025)
